Results reported in patent publication US7026327B2, “Pyrimidine derivatives useful as selective COX-2 inhibitors” (Glaxo Group Limited, priority 2001, dated 2006).
Where two headings read alike, the source gives them in different places.

Experiments:
human COX-2 = molecular target: T1, human COX-2 (Homo sapiens, UniProt P35354); test: Cell based assay, COS cells stably transfected with human COX-2, PGE2 release
T1 construct: expressed in transfected cells; host or cells: COS cells, stably transfected
T1 sequence (P35354 18-604): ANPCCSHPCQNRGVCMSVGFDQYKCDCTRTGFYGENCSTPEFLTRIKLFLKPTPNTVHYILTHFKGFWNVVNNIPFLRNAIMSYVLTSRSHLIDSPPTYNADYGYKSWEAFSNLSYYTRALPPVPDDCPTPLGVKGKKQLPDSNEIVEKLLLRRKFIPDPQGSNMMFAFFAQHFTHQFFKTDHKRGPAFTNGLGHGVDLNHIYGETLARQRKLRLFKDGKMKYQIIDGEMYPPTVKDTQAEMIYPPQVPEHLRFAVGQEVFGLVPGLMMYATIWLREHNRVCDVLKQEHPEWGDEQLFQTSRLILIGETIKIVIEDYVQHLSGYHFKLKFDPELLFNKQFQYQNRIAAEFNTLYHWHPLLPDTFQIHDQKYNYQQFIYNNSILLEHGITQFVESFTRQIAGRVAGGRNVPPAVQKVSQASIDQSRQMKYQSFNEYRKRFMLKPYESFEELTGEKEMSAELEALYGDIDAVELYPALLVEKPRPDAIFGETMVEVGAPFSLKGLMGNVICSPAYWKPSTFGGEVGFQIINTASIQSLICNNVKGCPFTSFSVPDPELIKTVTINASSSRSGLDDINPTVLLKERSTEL
Experimental: (§1) Inhibitory activity against human COX-1 and COX-2 was assessed in COS cells which had been stably transfected with cDNA for human COX-1 and human COX-2. 24 Hours prior to experiment, COS cells were transferred from the 175 cm^2 flasks in which they were grown, onto 24-well cell culture plates using the following procedure. The incubation medium (Dulbecco's modified eagles medium (DMEM) supplemented with heat-inactivated foetal calf serum (10% v/v), penicillin (100 IU/ml), streptomycin (100 μg/ml) and geneticin (600 μg/ml)) was removed from a flask of confluent cells (1 flask at confluency contains approximately 1×10^7 cells). 5 ml of phosphate buffered saline (PBS) was added to the flask to wash the cells. Having discarded the PBS, cells were then incubated with 5 ml trypsin for 5 minutes in an incubator (37°). The flask was then removed from the incubator and 5 ml of fresh incubation medium was added. The contents of the flask was transferred to a 250 ml sterile container and the volume of incubation medium subsequently made up to 100ml. 1 ml cell suspension was pipetted into each well of 4×24-well cell culture plates. The plates were then placed in an incubator (37° C., 95% air/5% CO2) overnight. If more than 1 flask of cells were required, the cells from the individual flasks were combined before being dispensed into the 24-well plates.
(§2) Following the overnight incubation, the incubation medium was completely removed from the 24-well cell culture plates and replaced with 250 μl fresh DMEM (37° C.). The test compounds were made up to 250× the required test concentration in DMSO and were added to the wells in a volume of 1 μl. Plates were then mixed gently by swirling and then placed in an incubator for 1 hour (37° C., 95% air/5% CO2). Following the incubation period, 10 μl of arachidonic acid (750 μM) was added to each well to give a final arachidonic acid concentration of 30 μM. Plates were then incubated for a further 10 minutes, after which the incubation medium was removed from each well of the plates and stored at −20° C., prior to determination of prostaglandin E2 (PGE2) levels using enzyme immunoassay. […] The selectivity ratio of inhibition of COX-1 versus COX-2 was calculated by comparing respective IC50 values.

COX-1 [1] = molecular target: T2, COX-1 (Homo sapiens, UniProt P23219); test: Cell based assay, COS cells stably transfected with human COX-1, PGE2 release; design: expressed in transfected cells; host or cells: COS cells, stably transfected
Experimental: as §1, §2

microsomal h-COX2 = molecular target: T3, microsomal h-COX2 (Homo sapiens, UniProt P35354); test: Microsomal assay, h-COX2 microsomal preparation from baculovirus infected SF9 cells; type: biochemical
T3 construct: made in house; host or cells: baculovirus infected SF9 cells (microsomal preparation)
T3 sequence (P35354 18-604): T1 sequence (P35354 18-604)
Experimental: Inhibitory activity against microsomal h-COX2 was assessed against a microsomal preparation from baculovirus infected SF9 cells. An aliquot of microsomal preparation was thawed slowly on ice and a 1/40,000 dilution prepared from it into the assay buffer (sterile water, degassed with argon containing 100 mM HEPES (pH 7.4), 10 mM EDTA (pH7.4), 1 mM phenol, 1 mM reduced glutathione, 20 mg/ml gelatin and 0.001 mM Hematin). Once diluted the enzyme solution was then sonicated for 5 seconds (Branson sonicator, setting 4, 1 cm tip) to ensure a homogeneous suspension. 155 μl enzyme solution was then added to each well of a 96-well microtitre plate containing either 5 μl test compound (40× required test concentration) or 5 μl DMSO for controls. Plates were then mixed and incubated at room temperature for 1 hour. Following the incubation period, 40 μl of 0.5 μM arachidonic acid was added to each well to give a final concentration of 0.1 μM. Plates were then mixed and incubated for exactly 10 minutes (room temperature) prior to addition of […] HCl (hydrochloric acid) to each well to stop the reaction. 25 μl of 1 M NaOH (sodium hydroxide) was then added to each well to neutralise the solution prior to determination of PGE2 levels by enzyme immunoassay (EIA).

COX-1 [2] = molecular target: T2, COX-1; test: Microsomal assay, COX-1; type: biochemical
[3] = microsomal assay, PGE2 by EIA, 0.1 μM arachidonic acid, read-out: COX-2: IC50

T2 sequence (P23219 24-599): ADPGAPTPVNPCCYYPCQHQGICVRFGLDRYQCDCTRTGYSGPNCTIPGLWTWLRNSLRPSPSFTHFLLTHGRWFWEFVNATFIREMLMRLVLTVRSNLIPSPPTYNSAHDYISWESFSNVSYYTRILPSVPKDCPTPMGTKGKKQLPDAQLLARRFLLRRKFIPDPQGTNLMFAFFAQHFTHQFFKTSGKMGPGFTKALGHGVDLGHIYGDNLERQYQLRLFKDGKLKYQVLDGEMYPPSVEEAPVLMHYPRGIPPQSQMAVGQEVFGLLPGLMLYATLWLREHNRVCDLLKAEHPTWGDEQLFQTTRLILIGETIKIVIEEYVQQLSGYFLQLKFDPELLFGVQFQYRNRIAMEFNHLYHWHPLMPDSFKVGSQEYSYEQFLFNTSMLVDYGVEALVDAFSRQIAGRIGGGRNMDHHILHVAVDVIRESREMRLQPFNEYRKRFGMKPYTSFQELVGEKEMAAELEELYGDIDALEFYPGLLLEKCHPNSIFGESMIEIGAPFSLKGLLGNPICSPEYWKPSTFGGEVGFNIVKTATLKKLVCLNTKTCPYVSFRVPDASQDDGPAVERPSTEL

SMILES | IC50 (human COX-2) | IC50 (COX-1 [1]) | IC50 (microsomal h-COX2; [3]) | IC50 (COX-1 [2]) | further results
CS(=O)(=O)c1ccc(-c2cc(C(F)(F)F)nc(Oc3ccc(F)cc3)n2)cc1 [Example 1, 2-(4-Fluorophenoxy)-4-[4-(methylsulfonyl)phenyl]-6-(trifluoromethyl)pyrimidine] | < 1 nM | 81.3 µM | – | – | –
Cc1ccc(Oc2nc(-c3ccc(S(C)(=O)=O)cc3)cc(C(F)(F)F)n2)cc1 [Example 6] | – | – | < 10 nM | 3.75 µM | –
CS(=O)(=O)c1ccc(-c2cc(C(F)(F)F)nc(OCC3CCCC3)n2)cc1 [Example 9] | – | – | – | – | IC50 (microsomal h-COX2): 22 nM
CCCCOc1nc(-c2ccc(S(C)(=O)=O)cc2)cc(C(F)(F)F)n1 [Example 10, 2-Butoxy-4-[4-(methylsulfonyl)phenyl]-6-(trifluoromethyl)pyrimidine] | – | – | 22 nM | – | –
CS(=O)(=O)c1ccc(-c2cc(C(F)(F)F)nc(OC3CCCCC3)n2)cc1 [Example 8, 2-(cyclohexyloxy)-4-[4-(methylsulfonyl)phenyl]-6-(trifluoromethyl)pyrimidine] | – | – | – | 1.86 µM | –
CS(=O)(=O)c1ccc(-c2cc(C(F)(F)F)nc(Oc3ccc(Br)cc3)n2)cc1 [Example 5] | 6 nM | 61.4 µM | – | – | –
CS(=O)(=O)c1ccc(-c2cc(C(F)(F)F)nc(Oc3cncc(Cl)c3)n2)cc1 [Example 7, 2-[(5-chloropyridin-3-yl)oxy]-4-[4-(methylsulfony)phenyl]-6-(trifluoromethyl)pyrimidine] | – | – | < 10 nM | 79.9 µM | –
CS(=O)(=O)c1ccc(-c2cc(C(F)(F)F)nc(Oc3ccc(F)c(F)c3)n2)cc1 [Example 2] | 23 nM | 9.67 µM | – | – | –
COc1ccc(Oc2nc(-c3ccc(S(C)(=O)=O)cc3)cc(C(F)(F)F)n2)cc1 [Example 3] | 4 nM | 2.92 µM | – | – | –
